Data from patent US20050065208A1, “Benzofuranes and their use in the treatment of atrial fibrillation” (priority 2001, published 2005).
Like-named read-outs stand apart in the source and are kept apart here. Each block holds one compound with its values, some of them ahead of it.

Columns and labels:
[1] = molecular target: INa, depolarizing Na-current (Homo sapiens, UniProt Q14524); design: key: Yes: The compound has been demonstrated to inhibit the particular current (reference within parenthesis).; No: The compound has been demonstrated to not inhibit the particular current (reference within parenthesis).; U: No data regarding interaction of the compound with the particular current has been found in the literature; conditions: Table 2, literature; cited from earlier work
INa, depolarizing Na-current, sequence (Q14524 whole entry): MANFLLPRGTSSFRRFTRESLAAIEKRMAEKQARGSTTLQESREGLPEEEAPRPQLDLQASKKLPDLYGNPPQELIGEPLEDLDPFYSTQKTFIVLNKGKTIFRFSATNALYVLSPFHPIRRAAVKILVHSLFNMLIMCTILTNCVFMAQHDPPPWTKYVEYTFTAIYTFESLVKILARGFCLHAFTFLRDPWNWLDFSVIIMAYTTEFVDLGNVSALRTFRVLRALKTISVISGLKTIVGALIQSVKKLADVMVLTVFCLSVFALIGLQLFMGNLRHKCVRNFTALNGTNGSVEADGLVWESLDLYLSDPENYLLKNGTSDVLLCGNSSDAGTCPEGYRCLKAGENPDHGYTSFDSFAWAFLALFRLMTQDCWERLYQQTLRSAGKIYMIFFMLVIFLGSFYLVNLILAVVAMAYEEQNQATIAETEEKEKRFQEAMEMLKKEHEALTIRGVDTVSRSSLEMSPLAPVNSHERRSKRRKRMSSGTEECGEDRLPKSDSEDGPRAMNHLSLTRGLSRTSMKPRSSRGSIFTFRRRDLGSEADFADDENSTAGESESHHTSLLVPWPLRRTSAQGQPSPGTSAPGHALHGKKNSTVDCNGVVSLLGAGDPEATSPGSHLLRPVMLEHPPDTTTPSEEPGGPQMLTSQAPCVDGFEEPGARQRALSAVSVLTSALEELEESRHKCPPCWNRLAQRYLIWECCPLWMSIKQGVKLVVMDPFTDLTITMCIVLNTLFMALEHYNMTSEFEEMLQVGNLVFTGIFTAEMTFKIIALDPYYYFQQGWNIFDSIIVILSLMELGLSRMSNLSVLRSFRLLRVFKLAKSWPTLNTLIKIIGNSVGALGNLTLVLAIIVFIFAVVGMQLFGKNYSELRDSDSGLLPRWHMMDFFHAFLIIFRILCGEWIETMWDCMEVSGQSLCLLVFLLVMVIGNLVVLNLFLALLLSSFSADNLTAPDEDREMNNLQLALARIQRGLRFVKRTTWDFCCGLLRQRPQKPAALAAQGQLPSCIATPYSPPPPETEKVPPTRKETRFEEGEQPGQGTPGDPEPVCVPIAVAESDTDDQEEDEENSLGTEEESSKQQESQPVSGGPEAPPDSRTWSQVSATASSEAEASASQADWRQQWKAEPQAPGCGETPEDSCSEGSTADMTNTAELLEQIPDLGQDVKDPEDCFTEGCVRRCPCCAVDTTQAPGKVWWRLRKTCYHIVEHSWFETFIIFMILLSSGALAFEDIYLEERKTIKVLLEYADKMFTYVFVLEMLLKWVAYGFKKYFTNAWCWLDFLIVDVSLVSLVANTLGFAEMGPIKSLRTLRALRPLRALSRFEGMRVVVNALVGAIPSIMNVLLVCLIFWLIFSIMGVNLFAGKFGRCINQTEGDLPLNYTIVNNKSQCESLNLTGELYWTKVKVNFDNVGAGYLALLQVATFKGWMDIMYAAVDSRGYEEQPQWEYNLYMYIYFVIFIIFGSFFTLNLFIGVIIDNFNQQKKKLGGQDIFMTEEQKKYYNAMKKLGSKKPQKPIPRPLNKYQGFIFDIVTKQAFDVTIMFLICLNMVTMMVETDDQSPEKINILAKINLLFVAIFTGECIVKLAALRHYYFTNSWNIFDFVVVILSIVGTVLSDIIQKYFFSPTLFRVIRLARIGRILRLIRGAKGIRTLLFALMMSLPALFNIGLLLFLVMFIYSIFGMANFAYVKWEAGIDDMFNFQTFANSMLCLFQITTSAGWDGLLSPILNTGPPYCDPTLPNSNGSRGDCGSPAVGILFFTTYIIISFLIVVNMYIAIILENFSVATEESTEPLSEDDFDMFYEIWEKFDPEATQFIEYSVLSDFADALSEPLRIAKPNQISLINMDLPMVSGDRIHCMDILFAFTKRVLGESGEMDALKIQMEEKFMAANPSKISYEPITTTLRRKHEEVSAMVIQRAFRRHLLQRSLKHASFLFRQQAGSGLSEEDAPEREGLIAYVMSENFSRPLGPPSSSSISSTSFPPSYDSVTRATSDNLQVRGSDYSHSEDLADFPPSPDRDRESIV

[2] = system: Ito, transient outward K-current; design: key: Yes: The compound has been demonstrated to inhibit the particular current (reference within parenthesis).; No: The compound has been demonstrated to not inhibit the particular current (reference within parenthesis).; U: No data regarding interaction of the compound with the particular current has been found in the literature; conditions: Table 2, literature; cited from earlier work
[3] = system: IK1, inward rectifier K-current; design: key: Yes: The compound has been demonstrated to inhibit the particular current (reference within parenthesis).; No: The compound has been demonstrated to not inhibit the particular current (reference within parenthesis).; U: No data regarding interaction of the compound with the particular current has been found in the literature; conditions: Table 2, literature; cited from earlier work
[4] = molecular target: T1, IK(ACh), AcetylCholine activated K-current (Homo sapiens, UniProt P48544+P48549); design: key to Blocking activity on IK(ACh): Yes: The compound has been demonstrated to inhibit the particular current (reference within parenthesis).; No: The compound has been demonstrated to not inhibit the particular current (reference within parenthesis).; U: No data regarding interaction of the compound with the particular current has been found in the literature; conditions: cited from earlier work; for Blocking activity on IK(ACh): Table 2, literature; for IC50: current induced by ACh or carbachol, literature value, read-out: Inhibition of IK (ACh) (Induced by ACh or Carbachol) (IC50)
T1 construct: electrophysiology technique applied to cardiomyocyte cultures; endogenous in cells
T1 sequence (P48549 1-501): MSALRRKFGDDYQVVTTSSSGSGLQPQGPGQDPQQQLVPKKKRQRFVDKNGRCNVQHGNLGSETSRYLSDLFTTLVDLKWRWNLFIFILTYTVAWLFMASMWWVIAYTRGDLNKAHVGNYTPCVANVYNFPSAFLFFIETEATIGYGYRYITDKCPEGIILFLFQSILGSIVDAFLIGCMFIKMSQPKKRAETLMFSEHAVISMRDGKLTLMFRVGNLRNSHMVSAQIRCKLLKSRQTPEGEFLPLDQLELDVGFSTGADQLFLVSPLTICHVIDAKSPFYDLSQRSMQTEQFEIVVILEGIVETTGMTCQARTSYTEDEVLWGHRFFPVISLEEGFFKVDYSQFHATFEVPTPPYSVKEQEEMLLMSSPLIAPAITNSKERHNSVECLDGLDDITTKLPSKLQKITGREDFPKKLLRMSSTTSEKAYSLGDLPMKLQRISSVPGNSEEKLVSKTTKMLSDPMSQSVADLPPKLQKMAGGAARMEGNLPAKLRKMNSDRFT
T1 sequence (P48544 1-419): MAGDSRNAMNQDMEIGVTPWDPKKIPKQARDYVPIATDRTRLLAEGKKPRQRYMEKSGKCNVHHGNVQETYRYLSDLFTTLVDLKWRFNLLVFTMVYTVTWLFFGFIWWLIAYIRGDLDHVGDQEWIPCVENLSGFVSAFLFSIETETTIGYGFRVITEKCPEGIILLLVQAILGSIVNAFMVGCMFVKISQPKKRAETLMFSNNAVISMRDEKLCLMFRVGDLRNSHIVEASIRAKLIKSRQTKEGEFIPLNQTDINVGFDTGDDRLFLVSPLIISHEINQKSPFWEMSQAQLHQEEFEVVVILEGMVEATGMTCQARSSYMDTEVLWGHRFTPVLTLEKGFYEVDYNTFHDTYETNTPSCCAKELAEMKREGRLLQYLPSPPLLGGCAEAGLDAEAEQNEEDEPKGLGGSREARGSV

[5] = molecular target: IKs, slow component of the delayed rectifier K-current (Homo sapiens, UniProt P51787); design: key: Yes: The compound has been demonstrated to inhibit the particular current (reference within parenthesis).; No: The compound has been demonstrated to not inhibit the particular current (reference within parenthesis).; U: No data regarding interaction of the compound with the particular current has been found in the literature; conditions: Table 2, literature; cited from earlier work
[6] = molecular target: T2, IK(Ado), adenosine activated K-current (Homo sapiens, UniProt P48544+P48549); design: key to Blocking activity on IK(Ado): Yes: The compound has been demonstrated to inhibit the particular current (reference within parenthesis).; No: The compound has been demonstrated to not inhibit the particular current (reference within parenthesis).; U: No data regarding interaction of the compound with the particular current has been found in the literature; conditions: cited from earlier work; for Blocking activity on IK(Ado): Table 2, literature; for IC50: literature value, read-out: Inhibition of IK (Ado) Induced by Adenosine (IC50)
T2 construct: electrophysiology technique applied to cardiomyocyte cultures; endogenous in cells
T2 sequence (P48549 1-501): T1 sequence (P48549 1-501)
T2 sequence (P48544 1-419): T1 sequence (P48544 1-419)

[7] = molecular target: T3, IK(ATP), ATP-sensitive K-current (Homo sapiens, UniProt Q14654); design: key: Yes: The compound has been demonstrated to inhibit the particular current (reference within parenthesis).; No: The compound has been demonstrated to not inhibit the particular current (reference within parenthesis).; U: No data regarding interaction of the compound with the particular current has been found in the literature; conditions: Table 2, literature; cited from earlier work
T3 construct: electrophysiology technique applied to cardiomyocyte cultures; endogenous in cells; current induced with dinitrophenole
T3 sequence (Q14654 whole entry): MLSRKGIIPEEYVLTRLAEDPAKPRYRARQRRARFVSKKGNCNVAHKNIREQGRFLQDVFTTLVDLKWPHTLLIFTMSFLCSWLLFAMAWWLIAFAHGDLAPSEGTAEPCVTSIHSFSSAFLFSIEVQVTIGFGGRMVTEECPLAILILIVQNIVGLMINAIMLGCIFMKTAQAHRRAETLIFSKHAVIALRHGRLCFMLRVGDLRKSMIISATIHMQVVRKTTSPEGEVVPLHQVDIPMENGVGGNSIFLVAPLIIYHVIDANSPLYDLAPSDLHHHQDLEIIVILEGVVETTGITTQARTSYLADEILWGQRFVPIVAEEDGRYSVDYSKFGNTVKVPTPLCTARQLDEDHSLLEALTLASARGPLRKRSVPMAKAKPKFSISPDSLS
T3 sequence (O60706 whole entry partner): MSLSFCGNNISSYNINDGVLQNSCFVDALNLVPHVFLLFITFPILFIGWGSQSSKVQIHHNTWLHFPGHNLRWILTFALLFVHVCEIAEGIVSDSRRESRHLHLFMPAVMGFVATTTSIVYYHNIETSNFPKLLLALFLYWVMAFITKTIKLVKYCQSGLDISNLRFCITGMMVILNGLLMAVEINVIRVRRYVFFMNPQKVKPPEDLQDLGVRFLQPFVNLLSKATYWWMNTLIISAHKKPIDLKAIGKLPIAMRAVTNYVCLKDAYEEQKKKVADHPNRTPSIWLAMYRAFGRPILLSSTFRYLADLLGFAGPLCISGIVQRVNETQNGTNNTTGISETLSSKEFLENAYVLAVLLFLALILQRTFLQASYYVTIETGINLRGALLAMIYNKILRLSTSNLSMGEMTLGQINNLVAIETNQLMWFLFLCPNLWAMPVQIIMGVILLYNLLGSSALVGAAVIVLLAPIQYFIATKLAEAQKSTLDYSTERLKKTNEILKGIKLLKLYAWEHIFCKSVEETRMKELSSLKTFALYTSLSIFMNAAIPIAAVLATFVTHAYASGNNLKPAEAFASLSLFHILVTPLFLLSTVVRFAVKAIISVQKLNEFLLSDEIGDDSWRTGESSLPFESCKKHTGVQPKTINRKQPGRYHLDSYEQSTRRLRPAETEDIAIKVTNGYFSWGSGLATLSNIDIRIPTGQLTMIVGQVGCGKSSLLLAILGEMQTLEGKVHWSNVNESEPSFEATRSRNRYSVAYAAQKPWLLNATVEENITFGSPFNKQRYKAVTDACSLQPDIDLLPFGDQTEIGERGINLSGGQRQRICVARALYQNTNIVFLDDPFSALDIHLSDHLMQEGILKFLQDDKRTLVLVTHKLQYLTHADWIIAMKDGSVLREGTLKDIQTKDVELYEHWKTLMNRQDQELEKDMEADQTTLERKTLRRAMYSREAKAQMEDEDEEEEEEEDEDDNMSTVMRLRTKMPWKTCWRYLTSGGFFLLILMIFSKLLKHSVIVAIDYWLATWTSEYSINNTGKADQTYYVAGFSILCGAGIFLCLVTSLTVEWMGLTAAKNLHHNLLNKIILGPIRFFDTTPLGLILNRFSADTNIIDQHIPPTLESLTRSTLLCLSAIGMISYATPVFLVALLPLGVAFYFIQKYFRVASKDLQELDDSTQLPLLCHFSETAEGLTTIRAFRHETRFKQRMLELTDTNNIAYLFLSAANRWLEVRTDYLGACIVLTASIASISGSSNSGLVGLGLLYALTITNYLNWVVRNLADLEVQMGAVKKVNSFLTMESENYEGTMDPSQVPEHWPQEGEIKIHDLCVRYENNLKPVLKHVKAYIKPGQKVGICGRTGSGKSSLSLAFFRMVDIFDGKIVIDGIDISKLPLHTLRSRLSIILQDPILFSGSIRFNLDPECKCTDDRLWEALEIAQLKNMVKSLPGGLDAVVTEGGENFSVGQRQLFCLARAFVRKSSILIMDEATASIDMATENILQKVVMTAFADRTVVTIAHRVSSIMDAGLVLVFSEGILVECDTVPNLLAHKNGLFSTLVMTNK

[8] = molecular target: T1, IK(ACh), AcetylCholine activated K-current; assay: Voltage clamp on cardiomyocyte cultures: inhibition of K-current induced by ACh or carbachol; type: cell-based
From the text: (§1) In the present invention acute and chronic effects of various compounds have been investigated by using electrophysiology technique applied to cardiomyocyte cultures.
(§2) The inhibitory effects occur within seconds after induction of the current with ACh, Ado or dinitrophenole (DNP reduces intracellular ATP). The acute inhibitory effects caused by the compounds of the present invention on these K-currents in cardiac muscle tissue had not previously been discovered. The reasons for this include the fact that these ligand activated K-currents (IK(Ado), IK(ACh) and IK(ATP)) are preferentially active in the atrial cardiomyocytes (Workman A J et al. Cardiovasc Res 1999 September;43(4):974-84; Koumi S-I, and Wasserstorm A. American Journal of Physiology 266[35], H1812-H1821. 1994), while previous studies have been carried out with tissue from cardiac ventricles. Furthermore, IK(Ado) and IK(ACh) must first be induced via the M2 or A1 receptor (with ACh and Ado respectively) before any inhibition can be observed. Without any agonist at the extracellular site of the membrane these ligand-gated channels probably have only minor roles in shaping repolarization but, when activated by extracellular acetylcholine or adenosine, they can substantially shorten action potential duration in the atrium (Tristani-Firouzi M et al. Am J Med 2001 January; 110(1):50-9).
(§3) The following Table 1 illustrates the potency (IC50-values) of compounds of formulae I and II compared with other anti-arrhythmic drugs to inhibit the transmembrane currents IK(Ado) and IK(ACh) after stimulation of the currents with Adenosine or Acetylcholine (or Carbachol).

[9] = molecular target: T2, IK(Ado), adenosine activated K-current; assay: Voltage clamp on cardiomyocyte cultures: inhibition of adenosine-induced K-current; type: cell-based
From the text: as §1, §2, §3

SMILES: CC(C)NCC(O)c1ccc(NS(C)(=O)=O)cc1 (racemic) [d,l-sotalol]
Blocking activity on INa [1]: No
Blocking activity on Ito [2]: Yes
Blocking activity on IK1 [3]: Yes
Blocking activity on IK(ACh) [4]: Yes (Mori)
IC50 [4]: 36 µM
Blocking activity on IKs [5]: No
Blocking activity on IK(Ado) [6]: No
Inhibition of IK (Ado) Induced by Adenosine, in words ([6]; current induced by adenosine, literature): No effect

SMILES: CCN(CC)CCCN(c1ccccc1)C1Cc2ccccc2C1 [Aprinidine]
Blocking activity on INa [1]: Yes
Blocking activity on Ito [2]: Yes
Blocking activity on IK1 [3]: No
Blocking activity on IK(ACh) [4]: Yes
IC50 [4]: 0.4 µM
Blocking activity on IKs [5]: No

SMILES: CC(C)N(CCC(C(N)=O)(c1ccccc1)c1ccccn1)C(C)C (centres unmarked) [Disopyramide]
Blocking activity on INa [1]: Yes
Blocking activity on Ito [2]: Yes
Blocking activity on IK1 [3]: No
Blocking activity on IK(ACh) [4]: Yes
IC50 [4]: 1.7 µM
Blocking activity on IKs [5]: Yes
Blocking activity on IK(ATP) [7]: Yes

SMILES: CCCCc1oc2ccc(NS(C)(=O)=O)cc2c1C(=O)c1ccc(OCCCN(CCCC)CCCC)cc1 [Dronedarone]
Blocking activity on INa [1]: Yes
Blocking activity on IK(ACh) [4]: Yes
IC50 [4]: 0.01 µM
Blocking activity on IKs [5]: Yes

IC50 ([8]; current induced by ACh or carbachol): 1 µM
IC50 ([9]; current induced by adenosine): 1 µM
SMILES: Cc1oc2ccccc2c1C(=O)c1cc(I)c(O)c(I)c1 [Example E5, 2-methyl-3-(3,5-diiodo-4-hydroxy-benzoyl)benzofuran]

SMILES: Cc1cccc(CCN2CCC(C(=O)c3ccc(NS(C)(=O)=O)cc3)CC2)n1 [Example E-4031]
IC50 [4]: 8 µM
Inhibition of IK (Ado) Induced by Adenosine, effect at 100 μM ([6]; literature): Some effect at 100 μM

Acute effects on IK(ACh) [8]: does not have acute effects
Acute effects on IK(Ado) [9]: does not have acute effects
SMILES: N[C@@H](Cc1cc(I)c(Oc2ccc(O)c(I)c2)c(I)c1)C(=O)O [Example T3, triiodthyronine]

SMILES: O=C(NCC1CCCCN1)c1cc(OCC(F)(F)F)ccc1OCC(F)(F)F (centres unmarked) [Flecainide]
Blocking activity on INa [1]: Yes
Blocking activity on Ito [2]: Yes
Blocking activity on IK1 [3]: No
Blocking activity on IK(ACh) [4]: Yes
IC50 [4]: 3.6 µM
Blocking activity on IKs [5]: No
Blocking activity on IK(ATP) [7]: Yes

SMILES: Cn1c(NCCN(CCO)CCCc2ccc([N+](=O)[O-])cc2)cc(=O)n(C)c1=O [MS-551]
IC50 [4]: 11 µM
Inhibition of IK (Ado) Induced by Adenosine, effect at 100 μM ([6]; literature): Some effect at 100 μM

SMILES: CC(C)NCC(O)COc1cccc2ccccc12 (centres unmarked) [Propranolol]
IC50 [4]: 56 µM
IC50 ([6]; current induced by adenosine): 8 µM

SMILES: C=C[C@H]1C[N@@]2CC[C@H]1C[C@@H]2[C@@H](O)c1ccnc2ccc(OC)cc12 [Quinidine]
Blocking activity on INa [1]: Yes
Blocking activity on Ito [2]: Yes
Blocking activity on IK1 [3]: No
Blocking activity on IK(ACh) [4]: Yes
IC50 [4]: 1.6 µM
Blocking activity on IKs [5]: No
Blocking activity on IK(ATP) [7]: Yes

SMILES: Cc1cccc(C)c1NC(=O)CC12CCCN1CCC2 [SUN 1165]
IC50 [4]: 29 µM

SMILES: COc1ccc(C2CCN(CC[C@H]3CCOc4ccccc43)CC2)cc1OC [Terikalant]
Blocking activity on INa [1]: No
Blocking activity on Ito [2]: Yes
Blocking activity on IK1 [3]: Yes
Blocking activity on IK(ACh) [4]: Yes
IC50 [4]: 2 µM
Blocking activity on IKs [5]: Yes
Blocking activity on IK(ATP) [7]: No
Blocking activity on IK(Ado) [6]: Yes
IC50 ([6]; current induced by adenosine): 2 µM
